Experimental data taken from US20230330093A1, “APPLICATION OF NITROGEN-CONTAINING SATURATED HETEROCYCLIC COMPOUND” (SHANGHAI PHARMACEUTICALS HOLDING CO., LTD., priority 2020, published 2023).

System: cynomolgus monkeys
Experiment: 4-week safety study: necropsy, gross pathology and organ weights;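 note: daily nasogastric dosing for 28 days, organs weighed at necropsy on day 28 or after a 28-day drug-free recovery (day 56), relative weights expressed as percent of body or brain weight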
Method: Cynomolgus monkeys (5/sex/group) were selected using a computerized randomization procedure based on body weight, and the compound of Formula I was administered to the cynomolgus monkeys by nasogastric feeding at dose levels of 0 (control), 20, 100, 450 mg/kg/day in a volume of 5 ml/kg. Individual dose volumes were adjusted weekly based on body weight of animals. For all the groups, 2/3 of the animals were randomly selected and euthanized on day 28. The remaining animals were euthanized after 28-day drug free period.
A complete gross necropsy was conducted on all animals by visual inspection at the end of the exposure period (day 28) and the recovery phase (day 56). The following selected organs were trimmed, weighed and evaluated in terms of absolute weight and as a percentage of final body weight or brain weight: brain, heart, kidney, liver, spleen, thymus, testes, epididymides, uterus, ovaries, adrenals and thyroid (including the parathyroid). The following tissues were preserved in 10% neutral buffered formalin: brain, pituitary gland, thyroid (including the parathyroid), trachea, heart, pancreas, spleen, adrenal glands, prostate, ovaries, uterus (including cervix uteri and oviduct), vagina, testes, epididymides, seminal vesicle, esophagus, duodenum, jejunum, ileum, cecum, colon, rectum, mesenteric lymph nodes, Peyer's patches, submaxillary lymph nodes, aorta, eyes, skeletal muscle, sciatic nerve, femur (including metaphysis), mammary gland, sternum, salivary glands, spinal cord, urinary bladder, lung (including the bronchi), liver, kidneys, stomach, bone marrow (sternal), thymus, sternum, gallbladder, any gross lesions or masses. The lung tissue was inflated with fixative at the time of necropsy. All the preserved tissues were paraffin embedded, sectioned, stained with hematoxylin and eosin (HE) and examined microscopically. Bone marrow cellular morphology examination was conducted with both smear (sternum) and paraffin-embedded sternum section.
For each sex, body weight, rectal temperature, ECG, organ weight, hematological parameters and serum biochemical data were analyzed with a statistical software SAS 9.3. Firstly homogeneity of variance was analyzed using Levene's test. If P>0.05, the one-way ANOVA analysis was employed. If P<0.05, the Kruskal-Wallis test was used. If the resulting ANOVA p-value was <0.05, a comparison of each group using the Dunnett T test was performed. If the resulting Kruskal-Wallis test p-value was <0.05, then the Dunnett T test was performed after data rank conversion.

`COC(=O)NCCCn1nc([C@@H](C)N(C(=O)[C@H]2CNCCO2)C2CC2)c2ccc(C)nc21` [compound of Formula I] was tested, and the “Liver Absolute weight” value (Female, 20 mg/kg, d 28) was 58.37 ± 7.38 g, the “Liver Relative weight (/body weight)” value (Female, 20 mg/kg, d 28) was 2.06 ± 0.22 and the “Liver Relative weight (/brain weight)” value (Female, 20 mg/kg, d 28) was 90.10 ± 7.72. The “Thymus Absolute weight” value (Female, 20 mg/kg, d 28) was 1.23 ± 0.40 g, the “Thymus Relative weight (/body weight)” value (Female, 20 mg/kg, d 28) was 0.04 ± 0.01 and the “Thymus Relative weight (/brain weight)” value (Female, 20 mg/kg, d 28) was 1.87 ± 0.46. For the same compound, the “Uterus Absolute weight” value (Female, 20 mg/kg, d 28) was 5.97 ± 1.20 g, the “Uterus Relative weight (/body weight)” value (Female, 20 mg/kg, d 28) was 0.21 ± 0.04 and the “Uterus Relative weight (/brain weight)” value (Female, 20 mg/kg, d 28) was 9.19 ± 1.57. The “kidney Absolute weight” value (Female, 20 mg/kg, d 28) was 12.20 ± 2.23 g, the “kidney Relative weight (/body weight)” value (Female, 20 mg/kg, d 28) was 0.43 ± 0.07 and the “kidney Relative weight (/brain weight)” value (Female, 20 mg/kg, d 28) was 18.73 ± 1.74. For the same compound, the “Liver Absolute weight” value (Female, 20 mg/kg, d 56) was 68.35 ± 3.32 g, the “Liver Relative weight (/body weight)” value (Female, 20 mg/kg, d 56) was 2.01 ± 0.07 and the “Liver Relative weight (/brain weight)” value (Female, 20 mg/kg, d 56) was 104.00 ± 10.62. For the same compound, the “Thymus Absolute weight” value (Female, 20 mg/kg, d 56) was 2.00 ± 0.71 g, the “Thymus Relative weight (/body weight)” value (Female, 20 mg/kg, d 56) was 0.06 ± 0.02 and the “Thymus Relative weight (/brain weight)” value (Female, 20 mg/kg, d 56) was 3.07 ± 1.24. For the same compound, the “Uterus Absolute weight” value (Female, 20 mg/kg, d 56) was 11.30 ± 3.25 g, the “Uterus Relative weight (/body weight)” value (Female, 20 mg/kg, d 56) was 0.33 ± 0.07 and the “Uterus Relative weight (/brain weight)” value (Female, 20 mg/kg, d 56) was 17.30 ± 5.86. For the same compound, the “kidney Absolute weight” value (Female, 20 mg/kg, d 56) was 13.75 ± 0.78 g, the “kidney Relative weight (/body weight)” value (Female, 20 mg/kg, d 56) was 0.41 ± 0.06 and the “kidney Relative weight (/brain weight)” value (Female, 20 mg/kg, d 56) was 20.86 ± 0.06. The “Liver Absolute weight” value (Female, 100 mg/kg, d 28) was 57.60 ± 4.25 g, the “Liver Relative weight (/body weight)” value (Female, 100 mg/kg, d 28) was 1.96 ± 0.13 and the “Liver Relative weight (/brain weight)” value (Female, 100 mg/kg, d 28) was 96.55 ± 7.51. The “Thymus Absolute weight” value (Female, 100 mg/kg, d 28) was 0.73 ± 0.50 g, the “Thymus Relative weight (/body weight)” value (Female, 100 mg/kg, d 28) was 0.02 ± 0.02 and the “Thymus Relative weight (/brain weight)” value (Female, 100 mg/kg, d 28) was 1.18 ± 0.73. The “Uterus Absolute weight” value (Female, 100 mg/kg, d 28) was 7.03 ± 0.94 g, the “Uterus Relative weight (/body weight)” value (Female, 100 mg/kg, d 28) was 0.24 ± 0.03 and the “Uterus Relative weight (/brain weight)” value (Female, 100 mg/kg, d 28) was 11.84 ± 2.02. The “kidney Absolute weight” value (Female, 100 mg/kg, d 28) was 11.67 ± 0.71 g, the “kidney Relative weight (/body weight)” value (Female, 100 mg/kg, d 28) was 0.40 ± 0.02 and the “kidney Relative weight (/brain weight)” value (Female, 100 mg/kg, d 28) was 19.61 ± 1.86. The “Liver Absolute weight” value (Female, 100 mg/kg, d 56) was 68.45 ± 20.01 g, the “Liver Relative weight (/body weight)” value (Female, 100 mg/kg, d 56) was 1.86 ± 0.37 and the “Liver Relative weight (/brain weight)” value (Female, 100 mg/kg, d 56) was 104.90 ± 37.06. For the same compound, the “Thymus Absolute weight” value (Female, 100 mg/kg, d 56) was 2.35 ± 0.49 g, the “Thymus Relative weight (/body weight)” value (Female, 100 mg/kg, d 56) was 0.07 ± 0.02 and the “Thymus Relative weight (/brain weight)” value (Female, 100 mg/kg, d 56) was 3.54 ± 0.52. For the same compound, the “Uterus Absolute weight” value (Female, 100 mg/kg, d 56) was 8.30 ± 3.39 g, the “Uterus Relative weight (/body weight)” value (Female, 100 mg/kg, d 56) was 0.23 ± 0.12 and the “Uterus Relative weight (/brain weight)” value (Female, 100 mg/kg, d 56) was 12.44 ± 4.34. For the same compound, the “kidney Absolute weight” value (Female, 100 mg/kg, d 56) was 14.15 ± 2.33 g, the “kidney Relative weight (/body weight)” value (Female, 100 mg/kg, d 56) was 0.39 ± 0.03 and the “kidney Relative weight (/brain weight)” value (Female, 100 mg/kg, d 56) was 21.60 ± 4.92. The “Liver Absolute weight” value (Female, 450 mg/kg, d 28) was 69.40 ± 3.68 g, the “Liver Relative weight (/body weight)” value (Female, 450 mg/kg, d 28) was 2.78 ± 0.31 and the “Liver Relative weight (/brain weight)” value (Female, 450 mg/kg, d 28) was 112.03 ± 12.42. The “Thymus Absolute weight” value (Female, 450 mg/kg, d 28) was 0.50 ± 0.14 g, the “Thymus Relative weight (/body weight)” value (Female, 450 mg/kg, d 28) was 0.02 ± 0.01 and the “Thymus Relative weight (/brain weight)” value (Female, 450 mg/kg, d 28) was 0.81 ± 0.27. The “Uterus Absolute weight” value (Female, 450 mg/kg, d 28) was 3.50 ± 0.14 g, the “Uterus Relative weight (/body weight)” value (Female, 450 mg/kg, d 28) was 0.14 ± 0.01 and the “Uterus Relative weight (/brain weight)” value (Female, 450 mg/kg, d 28) was 5.63 ± 0.10. The “kidney Absolute weight” value (Female, 450 mg/kg, d 28) was 12.95 ± 0.07 g, the “kidney Relative weight (/body weight)” value (Female, 450 mg/kg, d 28) was 0.52 ± 0.03 and the “kidney Relative weight (/brain weight)” value (Female, 450 mg/kg, d 28) was 20.87 ± 1.10. For the same compound, the “Liver Absolute weight” value (Female, 450 mg/kg, d 56) was 72.40 ± 11.74 g, the “Liver Relative weight (/body weight)” value (Female, 450 mg/kg, d 56) was 2.04 ± 0.05 and the “Liver Relative weight (/brain weight)” value (Female, 450 mg/kg, d 56) was 109.03 ± 13.64. For the same compound, the “Thymus Absolute weight” value (Female, 450 mg/kg, d 56) was 1.40 ± 0.14 g, the “Thymus Relative weight (/body weight)” value (Female, 450 mg/kg, d 56) was 0.04 ± 0.01 and the “Thymus Relative weight (/brain weight)” value (Female, 450 mg/kg, d 56) was 2.12 ± 0.29. The “Uterus Absolute weight” value (Female, 450 mg/kg, d 56) was 9.60 ± 2.40 g, the “Uterus Relative weight (/body weight)” value (Female, 450 mg/kg, d 56) was 0.27 ± 0.03 and the “Uterus Relative weight (/brain weight)” value (Female, 450 mg/kg, d 56) was 14.43 ± 3.09. For the same compound, the “kidney Absolute weight” value (Female, 450 mg/kg, d 56) was 14.75 ± 1.91 g, the “kidney Relative weight (/body weight)” value (Female, 450 mg/kg, d 56) was 0.42 ± 0.00 and the “kidney Relative weight (/brain weight)” value (Female, 450 mg/kg, d 56) was 22.23 ± 2.05. The “Liver Absolute weight” value (Male, 20 mg/kg, d 28) was 69.03 ± 2.87 g, the “Liver Relative weight (/body weight)” value (Male, 20 mg/kg, d 28) was 1.82 ± 0.21 and the “Liver Relative weight (/brain weight)” value (Male, 20 mg/kg, d 28) was 103.68 ± 11.79. The “Thymus Absolute weight” value (Male, 20 mg/kg, d 28) was 1.10 ± 0.20 g, the “Thymus Relative weight (/body weight)” value (Male, 20 mg/kg, d 28) was 0.03 ± 0.01 and the “Thymus Relative weight (/brain weight)” value (Male, 20 mg/kg, d 28) was 1.67 ± 0.43. The “kidney Absolute weight” value (Male, 20 mg/kg, d 28) was 14.30 ± 1.42 g, the “kidney Relative weight (/body weight)” value (Male, 20 mg/kg, d 28) was 0.37 ± 0.02 and the “kidney Relative weight (/brain weight)” value (Male, 20 mg/kg, d 28) was 21.46 ± 2.99. For the same compound, the “Liver Absolute weight” value (Male, 20 mg/kg, d 56) was 71.25 ± 1.77 g, the “Liver Relative weight (/body weight)” value (Male, 20 mg/kg, d 56) was 1.44 ± 0.02 and the “Liver Relative weight (/brain weight)” value (Male, 20 mg/kg, d 56) was 100.96 ± 1.74. The “Thymus Absolute weight” value (Male, 20 mg/kg, d 56) was 2.95 ± 0.07 g, the “Thymus Relative weight (/body weight)” value (Male, 20 mg/kg, d 56) was 0.06 ± 0.00 and the “Thymus Relative weight (/brain weight)” value (Male, 20 mg/kg, d 56) was 4.18 ± 0.08. For the same compound, the “kidney Absolute weight” value (Male, 20 mg/kg, d 56) was 16.40 ± 3.11 g, the “kidney Relative weight (/body weight)” value (Male, 20 mg/kg, d 56) was 0.33 ± 0.06 and the “kidney Relative weight (/brain weight)” value (Male, 20 mg/kg, d 56) was 23.16 ± 3.43. For the same compound, the “Liver Absolute weight” value (Male, 100 mg/kg, d 28) was 72.93 ± 14.69 g, the “Liver Relative weight (/body weight)” value (Male, 100 mg/kg, d 28) was 1.83 ± 0.25 and the “Liver Relative weight (/brain weight)” value (Male, 100 mg/kg, d 28) was 100.31 ± 9.48. The “Thymus Absolute weight” value (Male, 100 mg/kg, d 28) was 1.57 ± 0.90 g, the “Thymus Relative weight (/body weight)” value (Male, 100 mg/kg, d 28) was 0.04 ± 0.03 and the “Thymus Relative weight (/brain weight)” value (Male, 100 mg/kg, d 28) was 2.27 ± 1.44. For the same compound, the “kidney Absolute weight” value (Male, 100 mg/kg, d 28) was 15.13 ± 3.62 g, the “kidney Relative weight (/body weight)” value (Male, 100 mg/kg, d 28) was 0.37 ± 0.06 and the “kidney Relative weight (/brain weight)” value (Male, 100 mg/kg, d 28) was 20.85 ± 3.95. For the same compound, the “Liver Absolute weight” value (Male, 100 mg/kg, d 56) was 84.75 ± 5.59 g, the “Liver Relative weight (/body weight)” value (Male, 100 mg/kg, d 56) was 1.76 ± 0.06 and the “Liver Relative weight (/brain weight)” value (Male, 100 mg/kg, d 56) was 115.98 ± 8.59. The “Thymus Absolute weight” value (Male, 100 mg/kg, d 56) was 2.45 ± 0.35 g, the “Thymus Relative weight (/body weight)” value (Male, 100 mg/kg, d 56) was 0.05 ± 0.01 and the “Thymus Relative weight (/brain weight)” value (Male, 100 mg/kg, d 56) was 3.33 ± 0.02. The “kidney Absolute weight” value (Male, 100 mg/kg, d 56) was 17.85 ± 1.91 g, the “kidney Relative weight (/body weight)” value (Male, 100 mg/kg, d 56) was 0.37 ± 0.03 and the “kidney Relative weight (/brain weight)” value (Male, 100 mg/kg, d 56) was 24.36 ± 0.80. For the same compound, the “Liver Absolute weight” value (Male, 450 mg/kg, d 28) was 94.37 ± 12.72 g, the “Liver Relative weight (/body weight)” value (Male, 450 mg/kg, d 28) was 2.42 ± 0.20 and the “Liver Relative weight (/brain weight)” value (Male, 450 mg/kg, d 28) was 135.54 ± 14.14. For the same compound, the “Thymus Absolute weight” value (Male, 450 mg/kg, d 28) was 0.90 ± 0.10 g, the “Thymus Relative weight (/body weight)” value (Male, 450 mg/kg, d 28) was 0.02 ± 0.01 and the “Thymus Relative weight (/brain weight)” value (Male, 450 mg/kg, d 28) was 1.30 ± 0.20. The “kidney Absolute weight” value (Male, 450 mg/kg, d 28) was 16.77 ± 2.31 g, the “kidney Relative weight (/body weight)” value (Male, 450 mg/kg, d 28) was 0.43 ± 0.03 and the “kidney Relative weight (/brain weight)” value (Male, 450 mg/kg, d 28) was 24.07 ± 2.45. The “Liver Absolute weight” value (Male, 450 mg/kg, d 56) was 80.90 ± 4.95 g, the “Liver Relative weight (/body weight)” value (Male, 450 mg/kg, d 56) was 1.64 ± 0.22 and the “Liver Relative weight (/brain weight)” value (Male, 450 mg/kg, d 56) was 119.80 ± 2.56. The “Thymus Absolute weight” value (Male, 450 mg/kg, d 56) was 2.20 ± 0.42 g, the “Thymus Relative weight (/body weight)” value (Male, 450 mg/kg, d 56) was 0.04 ± 0.01 and the “Thymus Relative weight (/brain weight)” value (Male, 450 mg/kg, d 56) was 3.25 ± 0.50. For the same compound, the “kidney Absolute weight” value (Male, 450 mg/kg, d 56) was 18.75 ± 0.21 g, the “kidney Relative weight (/body weight)” value (Male, 450 mg/kg, d 56) was 0.38 ± 0.02 and the “kidney Relative weight (/brain weight)” value (Male, 450 mg/kg, d 56) was 27.81 ± 1.42. The “absolute or relative weight of uterus” value (high-dose monkeys) was “lower”, the “relative weight of liver and kidney” value (high-dose monkeys) was “Higher” and the “relative weight of thymus” value (high-dose monkeys) was “lower”. For the same compound, the “macroscopic findings related to administration” value (necropsy day 28 / day 56) was “no macroscopic findings for monkeys deemed related to administration of the test article except mild intestinal tympanites and thymus atrophy for the monkey that died early”.
